These results are taken from PMC11609934, “Exploration and characterization of the antimalarial activity of cyclopropyl carboxamides that target the mitochondrial protein, cytochrome b” (European Journal of Medicinal Chemistry, 2024).

The term EC50 denotes the midpoint of the concentration-response curve. For orientation: CC50 means the concentration giving 50% cytotoxicity. Read a low CC50 as greater toxicity to the cells.

Where only a bound is given, the exact number is not on record here.

Series [1] deals with P. falciparum 3D7 parasites. As to the kind of experiment: P. falciparum 3D7 asexual stage LDH assay (72 h). It is filed as cell-based, Plasmodium falciparum. Conditions: for EC50: Plasmodium falciparum, 3D7, 72 h, LDH activity of P. falciparum 3D7 parasites over 72 h, means and SDs, three or more experiments, read-out: Pf 3D7 EC50 (SD). The protocol:
To establish the SAR, synthesized analogs were assessed against the asexual stage parasite (72 h) using LDH as a proxy for parasite growth inhibition. Cytotoxicity was monitored against the human HepG2 cell line using Cell TitreGlo as a metabolic marker for cell growth.
P. falciparum 3D7 Asexual Stage LDH Assay. This is a platform assay is routinely undertaken at the Walter and Eliza Hall Institute and details on the protocol has been previously published. Briefly, 10-point dilution series of the compounds were prepared in 384 well assay plates using an Echo555 (Labcyte). Appropriate volumes of 10 mM compound stocks were transferred into the assay plates such that the starting concentration was 1 μM, with a 1 in 3-fold dilution series. All wells were backfilled with DMSO to 40 nL such that this remained constant (0.1 % DMSO). The positive growth control was 0.1 % DMSO and the negative growth control was 100 nM chloroquine. The parasite inoculum (40 μL) was dispensed into plates containing compounds using a Multidrop Combi dispenser (Thermo Scientific). […] Following 72 h growth, plates were sealed with parafilm and frozen at −80 °C overnight. Plates were thawed at room temperature for at least 4 h prior to LDH activity being measured. […] Plates were shaken to ensure mixing and absorbance at 650 nm was measured in an EnVision (PerkinElmer) plate reader after 30 min of incubation at room temperature. […] The equation used is sigmoidal dose response (variable slope), Y = bottom + (top − bottom)/(1 + 10((logEC50 − X) × Hill Slope)).

A short description of series [2]: Human HepG2 growth inhibition assay (Cell TitreGlo, 48 h). It is filed as cell-based. Conditions: human, HepG2 cells, HepG2 cell growth inhibition over 48 h. The protocol:
To establish the SAR, synthesized analogs were assessed against the asexual stage parasite (72 h) using LDH as a proxy for parasite growth inhibition. Cytotoxicity was monitored against the human HepG2 cell line using Cell TitreGlo as a metabolic marker for cell growth. Cyt b inhibitors typically have high lipophilicity, and so calculated physicochemical properties were determined, while in vitro ADME was also collected on representative analogs to gauge their suitability for efficacy studies in a 4-day P. berghei model.
Human HepG2 Growth Inhibition Assay. This is a routine assay undertaken at the Walter and Eliza Hall Institute and the method has been previously published. HepG2 cells were cultured in Dulbeccos modified eagles medium (DMEM) supplemented with 10 % fetal calf serum (FCS), in a humidified incubator at 37 °C and 5 % CO2. Assay plates (Greiner #781098, 384 well, white, tissue culture treated) were prepared by transferring appropriate volumes of 10 mM compound stocks using an Echo555 (Labcyte) such that the starting concentration was 50 μM, with a 1:2-fold dilution series. All wells were backfilled with DMSO to […] such that this remained constant (0.5 % DMSO). The positive growth control was 0.5 % DMSO and the negative growth control was 10 μM Bortezomib. HepG2 cells were seeded with 1000 cells in 50 μL DMEM with 10 % FCS into each well of the assay plates using a Multidrop Combi dispenser (Thermo Scientific). Plates were incubated at 37 °C and 5 % CO2 for 48 h. Cytotoxicity was determined using Cell Titer Glo (Promega) and calculated as a percentage using DMSO as the positive growth control and 10 μM Bortezomib as a negative growth control. EC50 values were calculated by Dotmatics 5.3 and Spotfire 7.11.1 software using a nonlinear regression four-parameter fit analysis. The equation used is sigmoidal dose response (variable slope), Y = bottom + (top − bottom)/(1 + 10((logEC50 − X) × Hill Slope)).

In the case of `O=C(NC1CC1)c1ccc(CN(Cc2ccc(CO)cc2)C2CC2)cc1` [Compound 71, N-Cyclopropyl-4-((cyclopropyl(4-(hydroxymethyl)benzyl)amino)methyl)benzamide], in series [1], the EC50 turned out to be 170 nM. The CC50 at 48 h in series [2] is > 40000 nM.

Regarding `O=C(NC1CC1)c1ccc(CN(Cc2ccc(F)cc2F)C2CC2)cc1` [Compound 72, N-Cyclopropyl-4-((cyclopropyl(2,4-difluorobenzyl)amino)methyl)benzamide], the EC50 in series [1] is 230 nM. For the same compound, the CC50 at 48 h in series [2] was > 40000 nM.

Consider `O=C(NC1CC1)c1ccc(CN(Cc2ccc(F)c(F)c2)C2CC2)cc1` [Compound 73], for which the EC50 in series [1] worked out at 220 nM. Besides, the CC50 at 48 h in series [2] is > 40000 nM.

Take `O=C(NC1CC1)c1ccc(CN(Cc2cc(F)cc(F)c2)C2CC2)cc1` [Compound 74]: the EC50 in series [1] was 220 nM. In addition, the CC50 at 48 h in series [2] is > 40000 nM.

Regarding `O=C(NC1CC1)c1ccc(CN(Cc2c(F)cc(F)cc2F)C2CC2)cc1` [Compound 75, N-Cyclopropyl-4-((cyclopropyl(2,4,6-trifluorobenzyl)amino)methyl)benzamide], the EC50 in series [1] came out at 190 nM. Besides, in series [2], the CC50 at 48 h was > 40000 nM.

Regarding `O=C(NC1CC1)c1ccc(CN(Cc2ccc(Cl)c(Cl)c2)C2CC2)cc1` [Compound 76], the EC50 in series [1] was determined as 210 nM. Besides, the CC50 at 48 h in series [2] is > 40000 nM.

In the case of `O=C(NC1CC1)c1ccc(CN(Cc2cc(Cl)cc(Cl)c2)C2CC2)cc1` [Compound 77], the EC50 in series [1] is 230 nM. The CC50 at 48 h in series [2] is > 40000 nM.

As to `O=C(NC1CC1)c1ccc(CN(Cc2c(Cl)cc(Cl)cc2Cl)C2CC2)cc1` [Compound 78, N-Cyclopropyl-4-((cyclopropyl(2,4,6-trichlorobenzyl)amino)methyl)benzamide], the EC50 in series [1] was 100 nM. The CC50 at 48 h in series [2] is > 40000 nM.

With `Cc1ccc(CN(Cc2ccc(C(=O)NC3CC3)cc2)C2CC2)c(C)c1` [Compound 80, N-Cyclopropyl-4-((cyclopropyl(2,4-dimethylbenzyl)amino)methyl)benzamide], the EC50 in series [1] turned out to be 190 nM. The CC50 at 48 h in series [2] was > 40000 nM.

For the compound `Cc1cc(C)cc(CN(Cc2ccc(C(=O)NC3CC3)cc2)C2CC2)c1` [Compound 81], the EC50 in series [1] was 190 nM. The CC50 at 48 h in series [2] was > 40000 nM.

Consider `Cc1cc(C)c(CN(Cc2ccc(C(=O)NC3CC3)cc2)C2CC2)c(C)c1` [Compound 82, N-Cyclopropyl-4-((cyclopropyl(2,4,6-trimethylbenzyl)amino)methyl)benzamide], for which the concentration for a half-maximal effect (EC50) in series [1] came to 80 nM. In addition, the CC50 at 48 h in series [2] was > 40000 nM.

In the case of `COc1cc(OC)c(CN(Cc2ccc(C(=O)NC3CC3)cc2)C2CC2)c(OC)c1` [Compound 83, N-Cyclopropyl-4-((cyclopropyl(2,4,6-trimethoxybenzyl)amino)methyl)benzamide], in series [1], the EC50 is 2500 nM. For the same compound, the CC50 at 48 h in series [2] was > 40000 nM.

On to `O=C(NC1CC1)c1ccc(CN(Cc2cc(C(F)(F)F)cc(C(F)(F)F)c2)C2CC2)cc1` [Compound 84, 4-(((3,5-Bis(trifluoromethyl)benzyl) (cyclopropyl)amino)methyl)-N-cyclopropylbenzamide], for which the EC50 in series [1] worked out at 100 nM. In series [2], the midpoint of cytotoxicity, the CC50 at 48 h, lay at 15000 nM.

As for `O=C(NC1CC1)c1ccc(CN(Cc2ccccn2)C2CC2)cc1` [Compound 85], the half-maximal effective concentration (EC50) in series [1] came out at 6600 nM. Further, the CC50 at 48 h in series [2] was > 40000 nM.

On to `O=C(NC1CC1)c1ccc(CN(Cc2ccncc2)C2CC2)cc1` [Compound 87], for which the EC50 in series [1] was 9200 nM. Besides, the CC50 at 48 h in series [2] is > 40000 nM.

With `CCCN(Cc1ccc(C(=O)NC2CC2)cc1)C1CC1` [Compound 90, N-Cyclopropyl-4-((cyclopropyl(propyl)amino)methyl)benzamide], the EC50 in series [1] came to 2500 nM. Also, the CC50 at 48 h in series [2] was > 40000 nM.

On to `CC(C)N(Cc1ccc(C(=O)NC2CC2)cc1)C1CC1` [Compound 91, N-Cyclopropyl-4-((cyclopropyl(isopropyl)amino)methyl)benzamide], for which the EC50 in series [1] is 2600 nM. The CC50 at 48 h in series [2] is > 40000 nM.

For the compound `CC(C)(C)CN(Cc1ccc(C(=O)NC2CC2)cc1)C1CC1` [Compound 93], the 50% effective concentration (EC50) in series [1] was 460 nM. For the same compound, in series [2], the CC50 at 48 h was > 40000 nM.

Take `O=C(NC1CC1)c1ccc(CN(CC2CCC2)C2CC2)cc1` [Compound 94]: in series [1], the EC50 is 520 nM. The 50% cytotoxic concentration (CC50) at 48 h in series [2] is > 40000 nM.

In the case of `O=C(NC1CC1)c1ccc(CN(CC2CCCC2)C2CC2)cc1` [Compound 95], the EC50 in series [1] came to 510 nM. Also, in series [2], the CC50 at 48 h was > 40000 nM.

Take `O=C(NC1CC1)c1ccc(CN(CC2CCCCC2)C2CC2)cc1` [Compound 96]: in series [1], the EC50 was determined as 240 nM. Further, the CC50 at 48 h in series [2] was > 40000 nM.

`CC(c1ccc(C(=O)NC2CC2)cc1)N(Cc1ccccc1)C1CC1` (stereo not shown) [Compound 98, 4-(1-(Benzyl(cyclopropyl)amino)ethyl)-N-cyclopropylbenzamide]: the EC50 in series [1] stood at 340 nM. In addition, the “fold decrease in Pf 3D7 activity relative to 17” value in series [1] (ratio of EC50 to compound 17) turned out to be 2 fold. Moreover, in series [2], the CC50 at 48 h is > 40000 nM.

Take `O=C(NC1CC1)c1ccc(CN(C2CC2)S(=O)(=O)c2ccccc2)cc1` [Compound 101]: the EC50 in series [1] stood at 2300 nM. In series [2], the 50% cytotoxic concentration (CC50) at 48 h is > 40000 nM.

With `O=C(NC1CC1)c1ccc(S(=O)(=O)N(Cc2ccccc2)C2CC2)cc1` [Compound 102, 4-(N-Benzyl-N-cyclopropylsulfamoyl)-N-cyclopropylbenzamide], in series [1], the EC50 was determined as 4800 nM. The cytotoxic concentration (CC50) at 48 h in series [2] is > 40000 nM.

With `O=C(NC1CC1)c1ccc(CN(Cc2ccccc2)C2CC2)cn1` [Compound 103, 5-((Benzyl(cyclopropyl)amino)methyl)-N-cyclopropylpicolinamide], the EC50 in series [1] amounted to 7600 nM. In addition, the 50% cytotoxic concentration (CC50) at 48 h in series [2] was > 40000 nM.

As to `O=C(NC1CC1)c1ccc(CN(Cc2ccccc2)C2CC2)nc1` [Compound 104, 6-((Benzyl(cyclopropyl)amino)methyl)-N-cyclopropylnicotinamide], in series [1], the EC50 is 3500 nM. For the same compound, the CC50 at 48 h in series [2] was > 40000 nM.

As for `O=C(NC1CC1)c1cnc(CN(Cc2ccccc2)C2CC2)s1` [Compound 105, 2-((Benzyl(cyclopropyl)amino)methyl)-N-cyclopropylthiazole-5-carboxamide], the EC50 in series [1] amounted to 2400 nM. Further, the CC50 at 48 h in series [2] was > 40000 nM.
